Where two headings read alike, the source gives them in different places.
Tests used:
[1] = target: T1, c-Met kinase domain recombinant protein (Homo sapiens, UniProt P08581); assay: biochemical; details: read-out: Inhibition rate at 10 μM (%)
T1 construct: 50 μL diluted solution of c-Met kinase domain recombinant protein in reaction buffer was added to initiate the reaction
Description: (§1) Enzymatic reaction substrate Poly(Glu,Tyr)4:1 was diluted to 20 μg/mL in potassium ion free PBS (10 mM sodium phosphate buffer, 150 mM NaCl, pH7.2-7.4), microplate was coated with this solution at 125 μL per well, and reacted at 37° C. for 12-16 hours. Liquid in wells was discarded. Plate washing: the plate was washed 3 times for 5 minutes each with 200 μL per well of T-PBS (potassium ion free PBS containing 0.1% Tween-20).
Into each well was added 49 μL diluted ATP solution in reaction buffer (50 mM HEPES pH 7.4, 50 mM MgCl2, 0.5 mM MnCl2, 0.2 mM Na3VO4, 1 mM DTT), and 1 μL per well of compound to be tested was added, then 50 μL diluted solution of c-Met kinase domain recombinant protein in reaction buffer was added to initiate the reaction, each test was setup with two wells of ATP free control. Reaction was performed in a 37° C. shaker (100 rpm) for 1 hour. Liquid in the wells was discarded, and the plate was washed three times with T-PBS.
Antibody PY99 was added at 100 μL per well (the antibody was 1:500 diluted in T-PBS containing 5 mg/mL BSA), incubated in a 37° C. shaker for 0.5 hour. Liquid in the wells was discarded, and the plate was washed three times with T-PBS.
Goat anti mouse secondary antibody labeled with horseradish peroxidase was added at 100 μL per well (the antibody was 1:2000 diluted in T-PBS containing 5 mg/mL BSA), incubated in a 37° C. shaker for 0.5 hour. Liquid in the wells was discarded, and the plate was washed three times with T-PBS.
Reaction was terminated by adding 50 μL per well of 2M H2SO4, the plate was read at 490 nm using a VERSAmax microplate reader with tunable wavelength.
(§2) Inhibition rate of the sample was calculated using the following equation: […]

[2] = target: T1, c-Met kinase domain recombinant protein; assay: biochemical; details: for inhibition at 0.1 µM: read-out: Average inhibition rate at 0.1 μM (%); for inhibition at 1 µM: read-out: Average inhibition rate at 1 μM (%); for inhibition at 10 µM: read-out: Average inhibition rate at 10 μM (%)
Description: as §1, with “discarded, then” for “discarded. Plate washing:”, “(PBS” for “(potassium ion free PBS”
Into each well was added 50 μL diluted ATP solution in reaction buffer (50 mM HEPES pH 7.4, 50 mM MgCl2, 0.5 mM MnCl2, 0.2 mM Na3VO4, 1 mM DTT), the final concentration was 5 μM. Test compound was diluted in DMSO to proper concentration, added at 1 μL per well or corresponding level of DMSO (negative control wells), then 49 μL diluted solution of c-Met kinase domain recombinant protein in reaction buffer was added to initiate the reaction, each test was setup with two wells of ATP free control. Reaction was performed in a 37° C. shaker (100 rpm) for 1 hour. The plate was washed three times with T-PBS. Primary antibody PY99 diluted solution was added at 100 μL per well, incubated in a 37° C. shaker for 0.5 hour.
The plate was washed three times with T-PBS. Goat anti mouse secondary antibody labeled with horseradish peroxidase was added at 100 μL per well, incubated in a 37° C. shaker for 0.5 hour. The plate was washed three times with T-PBS. […] Reaction was terminated by adding 50 μL per well of 2M H2SO4, the plate was read at 490 nm using a SPECTRA MAX 190 microplate reader with tunable wavelength.
as §2
IC50 was calculated by fitting the data for a four parameter fit using inhibition curve.

T1 sequence (P08581 1078-1345 limits assumed): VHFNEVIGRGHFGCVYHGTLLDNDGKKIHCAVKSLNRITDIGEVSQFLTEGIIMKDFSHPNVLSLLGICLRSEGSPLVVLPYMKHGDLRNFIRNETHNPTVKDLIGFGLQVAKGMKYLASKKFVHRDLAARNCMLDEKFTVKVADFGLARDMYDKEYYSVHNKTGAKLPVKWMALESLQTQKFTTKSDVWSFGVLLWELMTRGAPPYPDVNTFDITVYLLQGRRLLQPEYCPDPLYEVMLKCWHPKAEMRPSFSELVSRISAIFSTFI

| SMILES | inhibition at 10 µM [1] [%] | inhibition at 0.1 µM [2] [%] | inhibition at 1 µM [2] [%] | inhibition at 10 µM [2] [%] | IC50 [2] [nM] |
| --- | --- | --- | --- | --- | --- |
| Cn1cc(-c2cnc3cnn(S(=O)(=O)c4ccccc4C#N)c3c2)cn1 [Compound 8, 1-(2-cyanobenzenesulfonyl)-6-[(1-methyl)-4-pyrazolyl]-1-H-pyrazolo[4,3-b]pyridine] | 72.4 | 9.2 | 51.6 | 72.4 | – |
| Cn1cc(-c2cnc3cnn(S(=O)(=O)c4ccc([N+](=O)[O-])cc4)c3c2)cn1 [Compound 9, 1-(4-nitrobenzenesulfonyl)-6-[(1-methyl)-4-pyrazolyl]-1-H-pyrazolo[4,3-b]pyridine] | 22 | – | – | 22 | – |
| COc1ccc(S(=O)(=O)n2ncc3ncc(-c4cnn(C)c4)cc32)cc1OC [Compound 10, 1-(3,4-dimethoxybenzenesulfonyl)-6-[(1-methyl)-4-pyrazolyl]-1-H-pyrazolo[4,3-b]pyridine] | 37.9 | – | – | 37.9 | – |
| Cc1noc(C)c1S(=O)(=O)n1ncc2ncc(-c3cnn(C)c3)cc21 [Compound 11, 1-(3,5-dimethylisoxazolesulfonyl)-6-[(1-methyl)-4-pyrazolyl]-1-H-pyrazolo[4,3-b]pyridine] | 48.6 | – | – | 48.6 | – |
| Cn1cc(-c2cnc3cnn(S(=O)(=O)c4ccc(F)cc4F)c3c2)cn1 [Compound 12, 1-(2,4-difluorobenzenesulfonyl)-6-[(1-methyl)-4-pyrazolyl]-1-H-pyrazolo[4,3-b]pyridine] | 37.5 | – | – | 37.5 | – |
| CC(=O)c1ccc(S(=O)(=O)n2ncc3ncc(-c4cnn(C)c4)cc32)cc1 [Compound 13, 1-(4-acetylbenzenesulfonyl)-6-[(1-methyl)-4-pyrazolyl]-1-H-pyrazolo[4,3-b]pyridine] | 52.6 | 28.5 | 45.3 | 52.6 | – |
| Cn1cc(-c2cnc3cnn(S(=O)(=O)c4ccccc4C(F)(F)F)c3c2)cn1 [Compound 14, 1-(2-trifluoromethylbenzenesulfonyl)-6-[(1-methyl)-4-pyrazolyl]-1-H-pyrazolo[4,3-b]pyridine] | 74.3 | 39.9 | 54.7 | 74.3 | – |
| Cn1cc(-c2cnc3cnn(S(=O)(=O)c4ccc(C(F)(F)F)cc4)c3c2)cn1 [Compound 15, 1-(4-trifluoromethylbenzenesulfonyl)-6-[(1-methyl)-4-pyrazolyl]-1-H-pyrazolo[4,3-b]pyridine] | 40.6 | – | – | 40.6 | – |
| Cn1cc(-c2cnc3cnn(S(=O)(=O)c4cccc(C(F)(F)F)c4)c3c2)cn1 [Compound 16, 1-(3-trifluoromethylbenzenesulfonyl)-6-[(1-methyl)-4-pyrazolyl]-1-H-pyrazolo[4,3-b]pyridine] | 73.2 | 25.2 | 56.1 | 73.2 | – |
| COc1ccc(S(=O)(=O)n2ncc3ncc(-c4cnn(C)c4)cc32)cc1 [Compound 17, 1-(4-methoxybenzenesulfonyl)-6-[(1-methyl)-4-pyrazolyl]-1-H-pyrazolo[4,3-b]pyridine] | 49.9 | – | – | 49.9 | – |
| Cn1cc(-c2cnc3cnn(S(=O)(=O)c4cnn5cccnc45)c3c2)cn1 [Example 22, 1-(pyrazolo[1,5-a]pyrimidine-3-sulfonyl)-6-[(1-methyl)-4-pyrazolyl]-1-H-pyrazolo[4,3-b]pyridine] | 69.5 | 24.9 | 58.7 | 69.5 | 39.7 ± 6.3 |
| Cn1cc(-c2cnc3cnn(S(=O)(=O)c4cnc5ncccn45)c3c2)cn1 [Example 23, 1-(imidazo[1,2-a]pyrimidine-3-sulfonyl)-6-[(1-methyl)-4-pyrazolyl]-1-H-pyrazolo[4,3-b]pyridine] | 65.1 | 26.9 | 52.7 | 65.1 | 3.7 ± 1.4 |
| Cn1cc(-c2cnc3cnn(S(=O)(=O)c4cnc5ccc(C(F)(F)F)cn45)c3c2)cn1 [Example 26, 1-[(6-trifluoromethyl-imidazo[1,2-a]pyridine)-3-sulfonyl]-6-[(1-methyl)-4-pyrazolyl]-1-H-pyrazolo[4,3-b]pyridine] | 65.2 | 60 | 63.8 | 65.2 | 33.9 ± 6.9 |
| O=S(=O)(c1cnc2ccccn12)n1ncc2ncc(-c3cccnc3)cc21 [Example 30, 1-(imidazo[1,2-a]pyridine-3-sulfonyl)-6-(3-pyridinyl)-1-H-pyrazolo[4,3-b]pyridine] | 71 | 48.3 | 59.7 | 71 | – |
| O=S(=O)(c1cnc2ccccn12)n1ncc2ncc(-c3ccoc3)cc21 [Example 31, 1-(imidazo[1,2-a]pyridine-3-sulfonyl)-6-(3-furanyl)-1-H-pyrazolo[4,3-b]pyridine] | 69 | 59 | 64.1 | 69 | – |
| O=S(=O)(c1cnc2ccccn12)n1ncc2ncc(-c3ccc(C(F)(F)F)cc3)cc21 [Example 32, 1-(imidazo[1,2-a]pyridine-3-sulfonyl)-6-(4-trifluoromethylphenyl)-1-H-pyrazolo[4,3-b]pyridine] | 64.2 | 52.9 | 52 | 64.2 | – |
| O=S(=O)(c1cnc2ccccn12)n1ncc2ncc(-c3ccc4ccccc4c3)cc21 [Example 33, 1-(imidazo[1,2-a]pyridine-3-sulfonyl)-6-(2-naphthyl)-1-H-pyrazolo[4,3-b]pyridine] | 53.7 | 39.9 | 47.3 | 53.7 | – |
| CS(=O)(=O)Nc1ccc(-c2cnc3cnn(S(=O)(=O)c4cnc5ccccn45)c3c2)cc1 [Example 34, 1-(imidazo[1,2-a]pyridine-3-sulfonyl)-6-(4-methylsulfamidophenyl)-1-H-pyrazolo[4,3-b]pyridine] | 61.3 | 31.3 | 49.3 | 61.3 | – |
| CC(C)(C)OC(=O)N1CC=C(c2cnc3cnn(S(=O)(=O)c4cnc5ccccn45)c3c2)CC1 [Example 35, 1-(imidazo[1,2-a]pyridine-3-sulfonyl)-6-[(1-t-butoxycarbonyl)-4-(1,2,3,6-tetrahydropyridinyl)]-1-H-pyrazolo[4,3-b]pyridine] | 62.5 | 51.1 | 53.2 | 62.5 | – |
| O=S(=O)(c1cnc2ccccn12)n1ncc2ncc(-c3ccc4c(c3)OCCO4)cc21 [Example 36, 1-(imidazo[1,2-a]pyridine-3-sulfonyl)-6-[6-(1,4-benzodioxanyl)]-1-H-pyrazolo[4,3-b]pyridine] | 66.3 | 45.6 | 60 | 66.3 | – |
| O=S(=O)(c1cnc2ccccn12)n1ncc2ncc(-c3ccc(CN4CCOCC4)cc3)cc21 [Example 38, 1-(imidazo[1,2-a]pyridine-3-sulfonyl)-6-(4-morpholinomethylphenyl)-1-H-pyrazolo[4,3-b]pyridine] | 87.1 | 63.2 | 63.9 | 87.1 | – |
| CC(=O)c1ccc(-c2cnc3cnn(S(=O)(=O)c4cnc5ccccn45)c3c2)cc1 [Example 40, 1-(imidazo[1,2-a]pyridine-3-sulfonyl)-6-(4-acetylphenyl)-1-H-pyrazolo[4,3-b]pyridine] | 66 | 45.7 | 57.4 | 66 | – |
